Measurements published in PMC12332667, “Role of Structural Modifications in Peptidomimetic Compounds as Potential Antimicrobial Agents against Staphylococcus aureus and Streptococcus pyogenes: Balancing Bioavailability, Safety, and Antimicrobial Activity” (ACS Omega, 2025).
Converted amounts (≈) assume the structure as drawn. Non-standard residues stand in square brackets, D forms with d. Residues, ends and D or L forms follow the SMILES beside them. *: point of attachment. NHPhenethyl = c1ccc(CCN*)cc1; β3hV = CC(C)[C@H](N)CC(=O)O; Cbz = O=C(OCc1ccccc1)*

Assays:
S. aureus ATCC 43300 = test: MIC/MBC broth microdilution, S. aureus; assay type: cell-based, Staphylococcus aureus; conditions: S. aureus
S. pyogenes ATCC 19615 = test: MIC/MBC broth microdilution, S. pyogenes; assay type: cell-based, Streptococcus pyogenes; conditions: S. pyogenes
Method: (§1) S. aureus (ATCC 29213),S. pyogenes (ATCC 19615),Streptococcus agalactiae (ATCC 27956),Escherichia coli (ATCC 25922),Proteus vulgaris (ATCC 6896),K. pneumoniae (ATCC 700603) andP. aeruginosa (ATCC 10145) reference strains, as well asStaphylococcus cohnii, Enterococcus faecalis, Staphylococcus schleiferi, Staphylococcus intermedius and Streptococcus mutans clinical isolates, were used to test the antibacterial activity of the peptidomimetics. Bacteria were aerobically cultured for 18 h at 37 °C in plates with sterilized brain heart infusion (BHI) broth (Sigma-Aldrich, USA) media mixed with bacteriological agar (Sigma-Aldrich, USA) using the streak plate method. After 18 h, BHI broth was inoculated to 0.5 on the McFarland scale and diluted to approximately 10^5 CFU/mL. To achieve a final stock concentration of 1024 μg/mL, the peptidomimetics were dissolved in sterile water, and 5–10% of absolute ethanol or dimethyl sulfoxide (DMSO) was added. The antibacterial activities were determined by using the standard broth microdilution method of the National Committee for Clinical Laboratory Standards. The process involved adding serially diluted peptidomimetics to consecutive wells of a 96-well microtiter plate (Brand, Germany) holding media with microorganisms. The inoculated plates treated with peptides were then placed in an incubator at 37 °C for 18 h. The MIC value was determined as the lowest concentration of peptidomimetic at which there was no obvious growth (equal or more than 90% of the untreated sample). […] The lowest concentration yielding growth in no more than 3 colonies, corresponding to at least a 99.9% kill rate, was taken as MBC. Each biological replicate included control wells with the addition of water, DMSO, and ethanol as respective solvent controls. All experiments were conducted with consistent adherence to growth and sterility controls and were performed at least in technical triplicate with three biological repeats.

S. cohnii c.i. = test: MIC/MBC broth microdilution, S. cohnii; assay type: cell-based, Staphylococcus cohnii
Method: as §1

E. faecalis c.i. = test: MIC/MBC broth microdilution, E. faecalis; assay type: cell-based, Enterococcus faecalis
Method: as §1

S. schleiferi c.i. = test: MIC/MBC broth microdilution, S. schleiferi; assay type: cell-based, Staphylococcus schleiferi
Method: as §1

S. agalactiae ATCC 27956 = test: MIC/MBC broth microdilution, S. agalactiae; assay type: cell-based, Streptococcus agalactiae; conditions: S. agalactiae, water additive EtOH
Method: as §1

S. mutans c.i. = test: MIC/MBC broth microdilution, S. mutans; assay type: cell-based, Streptococcus mutans
Method: as §1

E. coli ATCC 25922 = test: MIC/MBC broth microdilution, E. coli; assay type: cell-based, Escherichia coli
Method: as §1

P. vulgaris ATCC 6896 = test: MIC/MBC broth microdilution, P. vulgaris; assay type: cell-based, Proteus vulgaris
Method: as §1

[1] = system: K. pneumoniae ATCC 700603; test: MIC/MBC broth microdilution, K. pneumoniae; assay type: cell-based
Method: as §1

P. aeruginosa ATCC 10145 = test: MIC/MBC broth microdilution, P. aeruginosa; assay type: cell-based
Method: as §1

[2] = system: immortalized human keratinocytes (HaCaT); test: LDH cytotoxicity test, keratinocytes; assay type: cell-based; conditions: 48 h, 50, 100 and 150 μg/mL, vs 1% Triton X-100
Method: (§2) In our study, we used two distinct cell types: immortalized human HaCaT keratinocytes (DKFZ, Heidelberg, Germany) and a human dermal fibroblast cell line (46BR.1N). […] Cultures were maintained in a humidified atmosphere with 5% CO2 at 37 °C in 25 cm^2 culture flasks with the medium replenished every 2 days. The condition of the cells was monitored using optical microscopy.
(§3) Cell death in immortalized human keratinocytes (HaCaT) and fibroblasts (46BR.1N) was measured by quantifying the lactate dehydrogenase (LDH) activity using a commercial kit (Roche, Switzerland). Cells were seeded in 96-well plates at a density of 5000 cells per well in DMEM high glucose medium supplemented with 10% FBS. After 24 h of incubation, the medium was replaced with serum-free medium containing various concentrations of peptidomimetics (50, 100, and 150 μg/mL). After 48 h, supernatants were collected for LDH analysis. Plate readings were taken spectrophotometrically using a 450 nm wavelength. Cell death measurements were normalized to an untreated control (0%), with 1% Triton X-100 detergent used as a positive control to induce maximum LDH release, indicating maximal cytotoxicity. Statistical significance was determined with a Mann–Whitney U test with a statistical significance p ≤ 0.05. Analysis was performed with Statistica software (Krakow, Poland) and graphs were prepared in GraphPad Prism (Boston, USA).

fibroblasts (46BR.1N) = test: LDH cytotoxicity test, fibroblasts; assay type: cell-based; conditions: 48 h, 50, 100 and 150 μg/mL, vs 1% Triton X-100
Method: as §2, §3

[3] = system: immortalized human HaCaT keratinocytes; test: XTT cell proliferation assay, keratinocytes; assay type: cell-based; conditions: for effect on proliferation, in words: XTT, 48 and 72 h, 0.01–150 μg/mL
Method: (§4) In our study, we used two distinct cell types: immortalized human HaCaT keratinocytes (DKFZ, Heidelberg, Germany) and a human dermal fibroblast cell line (46BR.1N). […] Cultures were maintained in a humidified atmosphere with 5% CO2 at 37 °C in 25 cm^2 culture flasks with the medium replenished every 2 days. The condition of the cells was monitored using optical microscopy. […] After 24 h of incubation, the medium was replaced with serum-free HG-DMEM containing appropriate concentrations of peptidomimetics. All solutions used in the experiments were prepared with double-distilled water or with the addition of ethanol under sterile conditions to ensure compatibility with the conditions of the bacteriological assay. For 72 h of incubation, half of the medium was replaced with fresh medium after 48 h, and cells were stimulated with peptides for a second time. The XTT cell proliferation assay was then performed according to the manufacturer’s instructions (Roche, Switzerland). Cells were treated with the peptides for either 48 or 72 h, followed by the addition of XTT reagent, and the plates were then incubated at 37 °C in a 5% CO2 environment for 4 h. Plate readings were taken using a standard plate reader at a wavelength of 490 nm (OD = 490 nm). […] Statistical significance was determined with a Mann–Whitney U test with statistical significance p ≤ 0.05. Analysis was performed with Statistica software, and graphs were prepared in GraphPad Prism.

[4] = system: human dermal fibroblast cell line (46BR.1N); test: XTT cell proliferation assay, fibroblasts; assay type: cell-based; conditions: for effect on proliferation, in words: XTT, 48 and 72 h, 0.01–150 μg/mL
Method: as §4

[5] = up to 150 μg/mL, A-193 and A-179 after 48 h

CC(C)C[C@H](NC(=O)[C@H](CCCNC(=N)N)NC(=O)OCc1ccccc1)C(=O)N[C@H](CC(=O)NCCc1ccccc1)C(C)C [Compound A-152] (Cbz-Arg-Leu-[β3hV]-NHPhenethyl)
MBC (S. aureus ATCC 43300; H2O): 256 µg/mL (≈ 401 µM)
MBC (S. aureus ATCC 43300; water additive DMSO): 512 µg/mL (≈ 803 µM)
MIC (S. aureus ATCC 43300; water additive DMSO): 512 µg/mL (≈ 803 µM)
MBC (S. pyogenes ATCC 19615; H2O): 256 µg/mL (≈ 401 µM)
MBC (S. pyogenes ATCC 19615; water additive DMSO): 256 µg/mL (≈ 401 µM)
MBC (S. pyogenes ATCC 19615; water additive EtOH): 126 µg/mL (≈ 198 µM)
MBC (S. cohnii c.i.; water additive DMSO): 512 µg/mL (≈ 803 µM)
MBC (S. cohnii c.i.; water additive EtOH): 512 µg/mL (≈ 803 µM)
MBC (E. faecalis c.i.; water additive DMSO): > 512 µg/mL
MIC (E. faecalis c.i.; water additive DMSO): 512 µg/mL (≈ 803 µM)
MBC (E. faecalis c.i.; water additive EtOH): 512 µg/mL (≈ 803 µM)
MIC (E. faecalis c.i.; water additive EtOH): 512 µg/mL (≈ 803 µM)
MIC (S. schleiferi c.i.; water additive DMSO): > 512 µg/mL
MIC (S. schleiferi c.i.; water additive EtOH): > 512 µg/mL
MBC (S. agalactiae ATCC 27956): 256 µg/mL (≈ 401 µM)
MIC (S. mutans c.i.; water additive DMSO): > 512 µg/mL
MIC (S. mutans c.i.; water additive EtOH): > 512 µg/mL
MIC (E. coli ATCC 25922; water additive DMSO): > 512 µg/mL
MIC (E. coli ATCC 25922; water additive EtOH): > 512 µg/mL
MIC (P. vulgaris ATCC 6896; water additive DMSO): > 512 µg/mL
MIC (P. vulgaris ATCC 6896; water additive EtOH): > 512 µg/mL
MIC ([1]; water additive DMSO): > 512 µg/mL
MIC ([1]; water additive EtOH): > 512 µg/mL
MIC (P. aeruginosa ATCC 10145; water additive DMSO): > 512 µg/mL
MIC (P. aeruginosa ATCC 10145; water additive EtOH): > 512 µg/mL
cytotoxicity (LDH) [2]: ≤ 50%
cytotoxicity (LDH) (fibroblasts (46BR.1N)): ≤ 50%
effect on proliferation, in words [3]: pro-proliferating effect at lower concentrations followed by an antiproliferative effect at higher concentrations
effect on proliferation, in words [4]: pro-proliferating effect at lower concentrations followed by an antiproliferative effect at higher concentrations

CC(C)[C@@H](CNC(=O)C(=Cc1ccccc1)c1ccccc1)NC(=O)[C@H](Cc1c[nH]cn1)NC(=O)[C@H](CCCNC(=N)N)NC(=O)OCc1ccccc1 [Compound A-176]
MIC (S. aureus ATCC 43300; H2O): 32 µg/mL (≈ 43.5 µM)
MIC (S. aureus ATCC 43300; water additive DMSO): 32 µg/mL (≈ 43.5 µM)
MIC (S. aureus ATCC 43300; water additive EtOH): 32 µg/mL (≈ 43.5 µM)
MBC (S. pyogenes ATCC 19615; H2O): 32 µg/mL (≈ 43.5 µM)
MIC (S. pyogenes ATCC 19615; H2O): 16 µg/mL (≈ 21.7 µM)
MIC (S. pyogenes ATCC 19615; water additive DMSO): 16 µg/mL (≈ 21.7 µM)
MBC (S. pyogenes ATCC 19615; water additive EtOH): 32 µg/mL (≈ 43.5 µM)
MIC (S. pyogenes ATCC 19615; water additive EtOH): 16 µg/mL (≈ 21.7 µM)
MBC (E. faecalis c.i.; H2O): 512 µg/mL (≈ 696 µM)
MIC (E. faecalis c.i.; H2O): 512 µg/mL (≈ 696 µM)
MIC (E. faecalis c.i.; water additive DMSO): > 512 µg/mL
MBC (E. faecalis c.i.; water additive EtOH): 512 µg/mL (≈ 696 µM)
MIC (E. faecalis c.i.; water additive EtOH): 256 µg/mL (≈ 348 µM)
MIC (S. schleiferi c.i.; H2O): 16 µg/mL (≈ 21.7 µM)
MBC (S. schleiferi c.i.; water additive EtOH): 32 µg/mL (≈ 43.5 µM)
MIC (S. schleiferi c.i.; water additive EtOH): 16 µg/mL (≈ 21.7 µM)
MIC (S. mutans c.i.; H2O): 32 µg/mL (≈ 43.5 µM)
MIC (S. mutans c.i.; water additive EtOH): 32 µg/mL (≈ 43.5 µM)
MBC (E. coli ATCC 25922; H2O): 256 µg/mL (≈ 348 µM)
MIC (E. coli ATCC 25922; H2O): 256 µg/mL (≈ 348 µM)
MIC (E. coli ATCC 25922; water additive DMSO): > 512 µg/mL
MIC (E. coli ATCC 25922; water additive EtOH): 512 µg/mL (≈ 696 µM)
MIC (P. vulgaris ATCC 6896; H2O): > 512 µg/mL
MIC (P. vulgaris ATCC 6896; water additive DMSO): > 512 µg/mL
MIC (P. vulgaris ATCC 6896; water additive EtOH): > 512 µg/mL
MIC ([1]; H2O): > 512 µg/mL
MIC ([1]; water additive DMSO): > 512 µg/mL
MIC ([1]; water additive EtOH): > 512 µg/mL
MIC (P. aeruginosa ATCC 10145; H2O): 256 µg/mL (≈ 348 µM)
MBC (P. aeruginosa ATCC 10145; water additive DMSO): 256 µg/mL (≈ 348 µM)
MIC (P. aeruginosa ATCC 10145; water additive DMSO): 256 µg/mL (≈ 348 µM)
MBC (P. aeruginosa ATCC 10145; water additive EtOH): 256 µg/mL (≈ 348 µM)
MIC (P. aeruginosa ATCC 10145; water additive EtOH): 256 µg/mL (≈ 348 µM)
cytotoxicity (LDH) [2]: exceeding 50%
effect on proliferation, in words [3]: negative impact
antiproliferative effect (decrease vs control) [3, 5]: up to 50%
effect on proliferation, in words [4]: negative impact
antiproliferative effect (decrease vs control) [4, 5]: up to 50%
